From patent US12486276B2, “5-(2,5-difluorophenyl)pyrrolidin-1-yl)-3-(1H-pyrazol-1-yl)pyrazolo[1,5-a]pyrimidine derivatives and related compounds as Trk kinase inhibitors for treating cancer” (Pyramid Biosciences, Inc., priority 2017, dated 2025) come the findings set out here.

SMILES strings stand for the structures. pIC50: −log10 of the molar value. A value given as a limit tells only on which side of the number the result lay.

T1 sequence (P04629 510-781 limits assumed): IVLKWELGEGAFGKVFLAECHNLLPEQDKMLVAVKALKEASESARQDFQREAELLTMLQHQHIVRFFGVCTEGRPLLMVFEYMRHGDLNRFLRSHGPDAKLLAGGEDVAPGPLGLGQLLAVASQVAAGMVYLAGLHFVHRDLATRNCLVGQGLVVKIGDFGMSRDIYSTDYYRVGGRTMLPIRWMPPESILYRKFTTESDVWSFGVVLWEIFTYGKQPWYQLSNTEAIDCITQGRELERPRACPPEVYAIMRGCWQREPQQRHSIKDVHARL

The assay addresses T1, TrkA kinase domain (Homo sapiens, UniProt P04629).
T1 construct: TrkA kinase domain was supplied by SignalChem; purchased SignalChem
Kind of assay: TrkA Kinase Assay (Trk kinase biochemical assay). The following applies: 33 pM TrkA, 100 nM peptide substrate, 10 µM ATP; 15 minute preincubation; read-out: TrkA WT IC50. The procedure:
Example 33: TrkA Kinase Assay Protocol
TrkA kinase domain was supplied by SignalChem. Ulight PolyGT peptide substrate and Europium labeled W1024 antiphosphotyrosine antibody were supplied by Perkin Elmer. Assay buffer contained 50 mM HEPES, 10 mM MgCb, 1 mM EGTA, 2 mM DTT, 0.1 mg/mL BSA, and 0.005% w/v tween 20, pH 7.5. Enzyme dilution buffer was made by supplementing assay buffer with 25% w/v glycerol. Antibody dilution buffer contained 20 mM Tris, 137 mM NaCl, and 0.05% w/v tween 20, pH 8.0. Buffers were prepared at room temperature. Enzyme solutions were made on ice, while other solutions were made at room temperature and all subsequent assay steps were performed at room temperature. The TrkA stock solution (0.1 mg/mL) was diluted 156× in enzyme dilution buffer and then 100× in assay buffer. Five pL/well of enzyme solution was added to the assay plate (Greiner black 384-well nonbinding plate), with buffer containing no enzyme added to negative control wells. Test compounds were serially diluted in DMSO at 300× final assay concentration. One μL of each test compound dilution was mixed with 99 pL assay buffer plus ATP (30 μM) and five pL of each test compound-ATP solution was added to w¾13s containing enzyme. Positive control wells contained enzyme and substrates but no test compounds. After a 15 minute enzyme-test compound preincubation, five pL of substrate diluted in assay buffer was added to all wells. Final assay concentrations were 33 pM TrkA, 100 nM peptide substrate, and […]. After a five minute reaction, five pL of 80 mM EDTA was added, followed five minutes later by five pL two nM antibody solution. The ratio of fluorescence at 665 nm vs. 615 nM in each well was determined using a Tecan Infinite Pro F200 plate reader. For each test compound well, percent inhibition w % s calculated (% inliib. =100-100*(test value-neg. control)/(pos. control-neg. control)). Percent inhibition values were fit to a four parameter logistic to determine ICso values for each test compound.
As for `COc1cncc(-c2cnn(-c3cnn4ccc(N5CCC[C@@H]5c5nc(F)ccc5F)nc34)c2)c1` [I-206, (R)-5-(2-(3,6-difluoropyridin-2-yl)pyrrolidin-t-yl)-3-(4-(5-methoxypyridin-3-yi)-1H-pyrazol-1-yl)pyrazolo[1,5-a]pyrimidine], the negative-log IC50 (pIC50) (usually the negative decadic logarithm of the IC50, by convention in mol/L) is > 8.00.

For `Fc1ccc(F)c([C@H]2CCCN2c2ccn3ncc(-n4cc(-c5cccnc5F)cn4)c3n2)c1` [I-194], the pIC50 is > 8.00.

In the case of `COc1ncccc1-c1cnn(-c2cnn3ccc(N4CCC[C@@H]4c4cc(F)ccc4F)nc23)c1` [I-202], the negative-log IC50 (pIC50) was > 8.00.

For `Fc1ccc(F)c([C@H]2CCCN2c2ccn3ncc(-n4cc(-c5ccncc5F)cn4)c3n2)c1` [I-205], the pIC50 was > 8.00.

`Cc1cnn(-c2cnn3ccc(N4CCC[C@@H]4c4nc(F)ccc4F)nc23)c1` [I-154, (R)-5-(2-(3,6-difluoropyridin-2-yl)pyrrolidin-1-yl)-3-(4-methyl-1H-pyrazol-1-yl)pyrazolo[1,5-a]pyrimidine]: the negative logarithm of the IC50 (pIC50) was > 8.00.

On to `Fc1ccc(F)c([C@H]2CCCN2c2ccn3ncc(-n4cc(C5=CCOCC5)cn4)c3n2)c1` [I-175, (R)-5-(2-(2,5-difluorophenyl)pyrrolidin-1-yl)-3-(4-(3,6-dihydro-2H-pyran-4-yl)-1H-pyrazol-1-yl)pyrazolo[1,5-a]pyrimidine], for which the negative logarithm of the IC50 (pIC50) is > 8.00.

For the compound `COc1ccncc1-c1cnn(-c2cnn3ccc(N4CCC[C@@H]4c4cc(F)ccc4F)nc23)c1` [I-201], the negative-log IC50 (pIC50) was > 8.00.

Regarding `N#Cc1cncc(-c2cnn(-c3cnn4ccc(N5CCC[C@@H]5c5cc(F)ccc5F)nc34)c2)c1` [I-191], the negative logarithm of the IC50 (pIC50) is > 8.00.

For `Fc1ccc(F)c([C@H]2CCCN2c2ccn3ncc(-n4cc(-c5cncc(OC6COC6)c5)cn4)c3n2)c1` [I-214, (R)-5-(2-(2,5-difluorophenyl)pyrrolidin-1-yl)-3-(4-(5-(oxetan-3-yloxy)pyridin-3-yl)-1H-pyrazol-1-yl)pyrazolo[1,5-a]pyrimidine], the negative-log IC50 (pIC50) was > 8.00.

Consider `Cn1ccc(-c2cnn(-c3cnn4ccc(N5CCC[C@@H]5c5cc(F)ccc5F)nc34)c2)cc1=O` [I-165], for which the pIC50 was > 8.00.

In the case of `Fc1ccc(F)c([C@H]2CCCN2c2ccn3ncc(-n4cc(-c5ccnnc5)cn4)c3n2)c1` [I-199], the pIC50 is > 8.00.

As for `OC1CCN(c2cnn(-c3cnn4ccc(N5CCC[C@@H]5c5ncccc5F)nc34)c2)C1` (stereo partly drawn) [I-209], the negative logarithm of the IC50 (pIC50) is > 8.00.

As to `Fc1cncc(-c2cnn(-c3cnn4ccc(N5CCC[C@@H]5c5cc(F)ccc5F)nc34)c2)c1` [I-190], the negative logarithm of the IC50 (pIC50) is > 8.00.

As to `Fc1ccc(F)c([C@H]2CCCN2c2ccn3ncc(-n4cc(-c5ccncc5)cn4)c3n2)c1` [I-160], the pIC50 is > 8.00.

For `CNc1ccc(F)c([C@H]2CCCN2c2ccn3ncc(-n4cc(C)cn4)c3n2)n1` [I-218], the negative-log IC50 (pIC50) was > 8.00.

In the case of `Cc1cnn(-c2cnn3ccc(N(C)[C@H](C)c4ccccc4)nc23)c1` [I-195, (R)—N-methyl-3-(4-methyl-1H-pyrazol-1-yl)-N-(1-phenylethyl)pyrazolo[1,5-a]pyrimidin-5-amine], the negative logarithm of the IC50 (pIC50) was > 8.00.

Take `CC(=O)c1cnn(-c2cnn3ccc(N4CCC[C@@H]4c4cc(F)ccc4F)nc23)c1` [I-225, (R)-1-(1-(5-(2-(2,5-difluorophenyl)pyrrolidin-1-yl)pyrazolo[1,5-a]pyrimidin-3-yl)-1H-pyrazol-4-yl)ethanone]: the negative logarithm of the IC50 (pIC50) was > 8.00.

Regarding `COc1cncc(-c2cnn(-c3cnn4ccc(N5CCC[C@@H]5c5cc(F)ccc5F)nc34)c2)c1` [I-161], the pIC50 was > 8.00.

In the case of `Fc1ccc(F)c([C@H]2CCCN2c2ccn3ncc(-n4cccn4)c3n2)c1` [I-152, (R)-5-(2-(2,5-difluorophenyI)pyrroIidin-1-yl)-3-(1H-pyrazol-1-yl)pyrazolo[1,5-a]pyrimidine], the pIC50 was > 8.00.

In the case of `Fc1ccc(F)c([C@H]2CCCN2c2ccn3ncc(-n4ncc5c4CCOC5)c3n2)c1` [I-184, (R)-1-(5-(2-(2,5-difluorophenyl)pyrrolidin-1-yl)pyrazolo[1,5-a]pyrimidin-3-yl)-1,4,6,7-tetrahydropyrano[4,3-c]pyrazole], the pIC50 is > 8.00.

As to `Cn1cc(-c2cnn(-c3cnn4ccc(N5CCC[C@@H]5c5cc(F)ccc5F)nc34)c2)cn1` [I-158], the negative-log IC50 (pIC50) was > 8.00.

Take `NC(=O)c1cnn(-c2cnn3ccc(N4CCC[C@@H]4c4cc(F)ccc4F)nc23)c1` [I-173, (R)-1-(5-(2-(2,5-difluorophenyl)pyrrolidin-1-yl)pyrazolo[1,5-a]pyrimidin-3-yl)-1H-pyrazole-4-carboxamide]: the pIC50 was > 8.00.

Consider `Cc1nnc(-c2cnn(-c3cnn4ccc(N5CCC[C@@H]5c5cc(F)ccc5F)nc34)c2)o1` [I-178, (R)-2-(1-(5-(2-(2,5-difluorophenyl)pyrrolidin-1-yl)pyrazolo[1,5-a]pyrimidin-3-yl)-1H-pyrazol-4-yl)-5-methyl-1,3,4-oxadiazole], for which the negative logarithm of the IC50 (pIC50) is > 8.00.

`COc1ccc(-c2cnn(-c3cnn4ccc(N5CCC[C@@H]5c5cc(F)ccc5F)nc34)c2)cn1` [I-200]: the negative logarithm of the IC50 (pIC50) was > 8.00.

With `COc1ccc(-c2cnn(-c3cnn4ccc(N5CCC[C@@H]5c5ncccc5F)nc34)c2)cn1` [I-222], the negative logarithm of the IC50 (pIC50) was > 8.00.

With `CS(=O)(=O)c1cnn(-c2cnn3ccc(N4CCC[C@@H]4c4cc(F)ccc4F)nc23)c1` [I-181, (R)-5-(2-(2,5-difluorophenyl)pyrrolidin-1-yl)-3-(4-(methylsulfonyl)-1H-pyrazoI-1-yl)pyrazolo[1,5-a]pyrimidine], the pIC50 was > 8.00.

As to `Fc1ccc(F)c([C@H]2CCCN2c2ccn3ncc(-n4cc(C5=CCOC5)cn4)c3n2)c1` [I-188], the pIC50 was > 8.00.

With `CCP(=O)(CC)c1cnn(-c2cnn3ccc(N4CCC[C@@H]4c4cc(F)ccc4F)nc23)c1` [I-177], the pIC50 was > 8.00.

Regarding `Fc1ccc(F)c([C@H]2CCCN2c2ccn3ncc(-n4cc(-c5ccncc5)cn4)c3n2)n1` [I-207], the negative-log IC50 (pIC50) was > 8.00.

As to `Fc1cccnc1[C@H]1CCCN1c1ccn2ncc(-n3cc(C(F)(F)F)cn3)c2n1` [I-215], the pIC50 is > 8.00.

As for `NC(=O)c1cnccc1-c1cnn(-c2cnn3ccc(N4CCC[C@@H]4c4cc(F)ccc4F)nc23)c1` [I-203], the negative-log IC50 (pIC50) is > 8.00.

On to `Fc1ccc(F)c([C@H]2CCCN2c2ccn3ncc(-n4cc(-c5ccsc5)cn4)c3n2)c1` [I-162], for which the pIC50 is > 8.00.

Take `OCc1cnn(-c2cnn3ccc(N4CCC[C@@H]4c4cc(F)ccc4F)nc23)c1` [I-155]: the negative-log IC50 (pIC50) was > 8.00.

For `COc1ccc(-c2cnn(-c3cnn4ccc(N[C@H](C)c5cc(F)ccc5F)nc34)c2)cn1` [I-220, (R)—N-(1-(2,5-difluor®phenyl)ethyl)-3-(4-(6-methoxypyridin-3-yl)-1H-pyrazoI-1-yl)pyrazolo[1,5-a]pyrimidin-5-amine], the pIC50 is > 8.00.

For `Fc1cccnc1[C@H]1CCCN1c1ccn2ncc(-n3cc(-c4ccncc4)cn3)c2n1` [I-213], the negative-log IC50 (pIC50) was > 8.00.

As to `Cc1cnn(-c2cnn3ccc(N[C@H](C)c4ccccc4)nc23)c1` [I-196], the pIC50 is > 8.00.

Take `COc1ccc(F)c([C@H]2CCCN2c2ccn3ncc(-n4cc(C)cn4)c3n2)n1` [I-216, (R)-5-(2-(3-fluoro-6-methoxypyridin-2-yl)pyrrolidin-1-yl)-3-(4-methyl-1H-pyrazoI-1-yl)pyrazolo[1,5-a]pyrimidine]: the negative logarithm of the IC50 (pIC50) was > 8.00.

Take `N#Cc1cnn(-c2cnn3ccc(N4CCC[C@@H]4c4cc(F)ccc4F)nc23)c1` [I-170, (R)-1-(5-(2-(2,5-difluorophenyl)pyrrolidin-1-yl)pyrazolo[J5-a]pyrimidin-3-yl)-1H-pyrazole-4-carbonitrile]: the negative-log IC50 (pIC50) was > 8.00.

For `Fc1ccc(F)c([C@H]2CCCN2c2ccn3ncc(-n4cc(-c5ccc(OC6COC6)nc5)cn4)c3n2)c1` [I-223, (R)-5-(2-(2,5-difluorophenyl)pyrrolidn-1-yl)-3-(4-(6-(oxetan-3-yloxy)pyridin-3-yl)-H-pyrazol-1-yl)pyrazolo[1,5-a]pyrimidine], the pIC50 is > 8.00.

For the compound `CN(C)Cc1cnn(-c2cnn3ccc(N4CCC[C@@H]4c4cc(F)ccc4F)nc23)c1` [I-186, (R)-1-(1-(5-(2-(2,5-difluor®phenyl)pyrrolidin-1-yl)pyrazolo[1,5-a]pyrimidin-3-yl)-1H-pyrazol-4-yl)-N,N-dimethylmethanamine], the negative logarithm of the IC50 (pIC50) is > 8.00.

On to `Fc1ccc(F)c([C@H]2CCCN2c2ccn3ncc(-n4cc(C5=COCC5)cn4)c3n2)c1` [I-212], for which the negative logarithm of the IC50 (pIC50) was > 8.00.

For `Cc1cnn(-c2cnn3ccc(N4CCC[C@@H]4c4cc(F)ccc4F)nc23)c1` [I-148], the pIC50 was > 8.00.

Consider `CC(C)(O)c1cnn(-c2cnn3ccc(N4CCC[C@@H]4c4cc(F)ccc4F)nc23)c1` [I-169], for which the pIC50 was > 8.00.

As for `COc1cnn(-c2cnn3ccc(N4CCC[C@@H]4c4cc(F)ccc4F)nc23)c1` [I-172], the pIC50 is > 8.00.

In the case of `Fc1cccnc1[C@H]1CCCN1c1ccn2ncc(-n3cc(-c4ccccc4)cn3)c2n1` [I-192], the pIC50 is > 8.00.
